Results on 7 compounds are retold here after patent US20140235643A1, “NOVEL QUINOXALINE INHIBITORS OF PI3K” (GILEAD CALISTOGA LLC, priority 2011, published 2014).

SMILES strings stand for the structures.

One assay has as its target T1, PI3Kα (p110α/p85α) (Homo sapiens, UniProt P42336).
T1 construct: purchased Invitrogen
In words: PI3K biochemical enzyme assay (Adapta universal kinase assay), p110 alpha/p85 alpha. Particulars: for inhibition at 1 µM / inhibition at 10 µM: read-out: PI3Kα % inhib; for IC50: Table 2, PI3k biochemical assays, read-out: p110α/p85α IC50. How it is done:
This example describes a method of obtaining in vitro activity data concerning the effect of compounds of on various PI3K isoforms. The effect of compounds on the kinase activity of Class I PI3Ks was measured at Invitrogen by using the Adapta® universal kinase assay. It was a homogenous, fluorescent based immunoassay for the detection of ADP produced by the kinase reaction. This assay can be divided into two phases: a kinase reaction phase, and an ADP detection phase. In the kinase reaction phase, all components required for the kinase reaction were added to the well, and the reaction was allowed to incubate for 60 minutes. After the reaction, a detection solution consisting of a europium labeled anti-ADP antibody, an Alexa Fluor® 647 labeled ADP tracer, and EDTA (to stop the kinase reaction) was added to the assay well. ADP formed by the kinase reaction (in the absence of an inhibitor) displaced the Alexa Fluor® 647 labeled ADP tracer from the antibody, resulting in a decrease in the TR-FRET signal.
ADP formation was determined by calculating the emission ratio from the assay well. The emission ratio was calculated by dividing the intensity of the tracer (acceptor) emission by the intensity of the Eu (donor) emission at 615 nm as shown in the equation below.
The Test Compounds were screened in 1% DMSO (final) in the well. All Substrate/Kinase Mixtures were diluted to a 2× working concentration in the appropriate Kinase Buffer as described below for the individual kinase:
The 2× p110 alpha/p85 alpha/PIP2:PS mixture was prepared in 50 mM HEPES pH 7.5, 100 mM NaCl, 0.03% CHAPS, 3 mM mgCl2, 1 mM EGTA. The final 10 μL Kinase Reaction consisted of 0.3-1.5 ng p110 alpha/p85 alpha and 50 μM PIP2:PS in 32.5 mM HEPES pH 7.5, 50 mM NaCl, 0.015% CHAPS, 1.5 mM mgCl2, 0.5 mM EGTA. After the 1 hour Kinase Reaction incubation, 5 μL of Detection Mix was added.
The Detection mix consisted of EDTA (30 mM), Eu-anti-ADP antibody (30 nM) and ADP tracer. All ATP Solutions were diluted to a 4× working concentration in water and used at the Km apparent concentrations for each individual kinase.

The target of another assay is T2, PI3Kα (Mus musculus, UniProt P42337).
T2 construct: endogenous in cells; host or cells: Swiss-3T3 fibroblasts (ATCC)
T2 sequence (P42337 whole entry): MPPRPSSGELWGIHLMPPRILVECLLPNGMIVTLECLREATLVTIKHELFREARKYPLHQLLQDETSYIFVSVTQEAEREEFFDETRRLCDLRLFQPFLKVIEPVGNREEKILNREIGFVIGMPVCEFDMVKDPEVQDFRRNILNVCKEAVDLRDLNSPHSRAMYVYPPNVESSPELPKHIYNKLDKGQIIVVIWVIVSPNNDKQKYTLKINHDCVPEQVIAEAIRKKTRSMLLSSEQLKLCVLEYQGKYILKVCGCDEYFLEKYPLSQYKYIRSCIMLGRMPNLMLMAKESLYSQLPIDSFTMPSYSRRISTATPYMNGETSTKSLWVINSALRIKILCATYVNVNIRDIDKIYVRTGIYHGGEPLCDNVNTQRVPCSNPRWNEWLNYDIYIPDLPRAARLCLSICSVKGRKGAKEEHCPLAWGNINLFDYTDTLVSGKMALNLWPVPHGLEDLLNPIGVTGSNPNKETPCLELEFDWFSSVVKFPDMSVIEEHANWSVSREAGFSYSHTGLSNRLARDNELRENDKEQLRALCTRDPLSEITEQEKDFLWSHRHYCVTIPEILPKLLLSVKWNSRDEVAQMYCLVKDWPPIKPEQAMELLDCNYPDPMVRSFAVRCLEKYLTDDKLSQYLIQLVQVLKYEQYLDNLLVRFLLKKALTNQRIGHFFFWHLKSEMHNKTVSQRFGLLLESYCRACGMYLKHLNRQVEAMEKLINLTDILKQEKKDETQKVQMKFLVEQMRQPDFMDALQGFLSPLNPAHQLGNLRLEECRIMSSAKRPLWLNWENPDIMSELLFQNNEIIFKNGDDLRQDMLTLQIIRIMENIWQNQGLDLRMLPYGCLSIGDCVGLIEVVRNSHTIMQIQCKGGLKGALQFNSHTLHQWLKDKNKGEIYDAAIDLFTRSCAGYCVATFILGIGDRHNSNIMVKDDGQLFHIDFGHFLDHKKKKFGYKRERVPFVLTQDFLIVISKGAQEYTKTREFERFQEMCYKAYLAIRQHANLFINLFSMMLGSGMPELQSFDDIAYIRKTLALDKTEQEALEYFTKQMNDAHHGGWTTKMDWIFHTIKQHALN
T2 sequence (P26450 whole entry partner): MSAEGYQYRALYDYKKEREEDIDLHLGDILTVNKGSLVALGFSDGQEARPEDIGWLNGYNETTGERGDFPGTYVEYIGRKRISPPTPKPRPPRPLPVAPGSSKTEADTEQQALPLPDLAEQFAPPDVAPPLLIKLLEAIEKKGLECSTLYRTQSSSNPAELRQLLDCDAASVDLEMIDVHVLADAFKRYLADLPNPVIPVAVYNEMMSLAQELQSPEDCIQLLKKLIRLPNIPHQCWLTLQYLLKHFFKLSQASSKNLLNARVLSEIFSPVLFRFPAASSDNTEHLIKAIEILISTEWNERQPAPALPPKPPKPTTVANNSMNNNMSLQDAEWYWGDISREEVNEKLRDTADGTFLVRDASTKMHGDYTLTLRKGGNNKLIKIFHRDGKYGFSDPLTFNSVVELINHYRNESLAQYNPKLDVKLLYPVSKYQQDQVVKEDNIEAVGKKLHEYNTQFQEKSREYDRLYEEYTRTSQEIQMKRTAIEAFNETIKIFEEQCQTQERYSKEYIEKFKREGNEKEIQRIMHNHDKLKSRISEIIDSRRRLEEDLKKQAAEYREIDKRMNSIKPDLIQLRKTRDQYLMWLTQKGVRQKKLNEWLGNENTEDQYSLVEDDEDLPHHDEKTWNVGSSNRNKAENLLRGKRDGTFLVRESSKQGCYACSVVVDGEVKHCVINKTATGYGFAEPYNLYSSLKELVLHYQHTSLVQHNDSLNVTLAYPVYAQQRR
In words: PI3Kα-dependent cell-based assay: PDGF-BB mediated AKT phosphorylation in Swiss-3T3 cells. The note with it: PDGF-BB-induced AKT phosphorylation, Swiss-3T3 fibroblasts. The method, then: PDGF-BB-induced AKT phosphorylation in Swiss-3T3 fibroblasts is mediated by p110α. C5a-induced AKT phosphorylation in RAW-264 murine macrophages is mediated exclusively by p110γ.
PI3Kα-Dependent Cell-Based Assay: PDGF-BB Mediated AKT Phosphorylation in Swiss-3T3 Cells
Swiss-3T3 fibroblasts (American Type Culture Collection) were cultured with DMEM containing 10% fetal bovine serum and the antibiotics penicillin and streptomycin. Cells were seeded on a 96-well Tissue Culture Plate at 25,000 cells/well and allowed to reach at least 90% confluency. The cells were starved for 2 to 12 hr in 0.1% FBS containing medium and then were pretreated with inhibitors or DMSO for 2 hr. The cells were stimulated for 15 min with 10 ng/ml PDGF-BB (Cell Signaling Technology) at 37° C. in 5% CO2. The culture medium was removed and cells were fixed for 20 min at room temperature by addition of 100 μl of 4% cell fixing buffer to each well. AKT phosphorylation and total AKT was detected by ELISA.
Detection of Phospho-Ser-473 AKT and Total AKT by ELISA
The fixed cells were washed twice with 150 μl of wash buffer (WB) and quenched by incubating with 100 μl of Quenching Buffer for 20 min at room temperature. Cells were washed once with 150 μl WB and blocked by incubating with 100 μl of Blocking Buffer for 1 hr at room temperature. Cells were incubated with 50 μl of primary antibody diluted in Blocking Buffer, either phospho-Ser-473 AKT specific (1:150 dilution) or total-AKT antibody (1:200 dilution), to each specific well. The negative control wells contained 50 μl of Blocking Buffer. Plates were sealed with plate sealing film and incubated overnight at 4° C. Cells were washed twice with 150 μl WB followed by addition of 50 μl per well of DELFIA secondary antibody (50 ng/well, diluted in DELFIA Assay Buffer). After 2 hr incubation at room temperature, cells were washed 4 times with 150 μl of Europium Wash Solution followed by addition of 100 μl of DELFIA Enhancing Solution to each well. Plates were incubated for 5 min in the dark and fluorescent signal was read using SpectraMax M5™ (Molecular Devices). Total AKT level was determined to verify equal cell number per well. The average background fluorescence values from wells that received vehicle control in the absence of PDGF-BB or C5a were subtracted from all the values of experimental conditions. Fluorescence values corresponding to phosphorylated AKT from wells that received PDGF-BB or C5a were normalized to 100% and compound effect was plotted as % change relative to the vehicle control.

T1 sequence (P42336 whole entry): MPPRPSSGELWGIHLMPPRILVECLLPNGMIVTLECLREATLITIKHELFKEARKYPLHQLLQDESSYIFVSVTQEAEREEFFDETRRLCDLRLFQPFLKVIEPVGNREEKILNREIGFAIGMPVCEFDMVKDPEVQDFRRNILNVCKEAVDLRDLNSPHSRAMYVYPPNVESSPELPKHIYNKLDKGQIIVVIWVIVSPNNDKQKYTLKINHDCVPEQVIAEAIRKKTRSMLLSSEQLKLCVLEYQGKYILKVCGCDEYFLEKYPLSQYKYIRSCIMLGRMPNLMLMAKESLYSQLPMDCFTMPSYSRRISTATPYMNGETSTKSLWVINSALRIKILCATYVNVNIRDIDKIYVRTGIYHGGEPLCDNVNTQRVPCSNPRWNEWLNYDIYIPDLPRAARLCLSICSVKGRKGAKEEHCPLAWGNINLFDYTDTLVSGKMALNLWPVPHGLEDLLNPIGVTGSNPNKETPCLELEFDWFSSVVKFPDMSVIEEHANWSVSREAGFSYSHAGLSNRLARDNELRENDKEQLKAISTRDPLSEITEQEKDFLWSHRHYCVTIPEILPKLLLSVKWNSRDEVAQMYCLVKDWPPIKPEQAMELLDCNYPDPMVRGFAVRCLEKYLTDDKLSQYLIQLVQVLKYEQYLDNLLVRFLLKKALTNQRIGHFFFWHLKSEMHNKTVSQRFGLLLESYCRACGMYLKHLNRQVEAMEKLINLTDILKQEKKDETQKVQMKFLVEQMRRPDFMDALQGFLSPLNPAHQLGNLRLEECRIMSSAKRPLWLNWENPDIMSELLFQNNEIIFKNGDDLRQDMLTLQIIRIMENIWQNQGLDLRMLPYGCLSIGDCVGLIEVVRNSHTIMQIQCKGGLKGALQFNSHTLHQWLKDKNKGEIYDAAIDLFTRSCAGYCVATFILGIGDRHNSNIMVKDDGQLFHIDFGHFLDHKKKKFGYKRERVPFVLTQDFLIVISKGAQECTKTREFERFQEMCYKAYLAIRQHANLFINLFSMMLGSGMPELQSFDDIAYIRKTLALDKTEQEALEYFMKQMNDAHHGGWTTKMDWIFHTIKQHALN
T1 sequence (P27986 whole entry partner): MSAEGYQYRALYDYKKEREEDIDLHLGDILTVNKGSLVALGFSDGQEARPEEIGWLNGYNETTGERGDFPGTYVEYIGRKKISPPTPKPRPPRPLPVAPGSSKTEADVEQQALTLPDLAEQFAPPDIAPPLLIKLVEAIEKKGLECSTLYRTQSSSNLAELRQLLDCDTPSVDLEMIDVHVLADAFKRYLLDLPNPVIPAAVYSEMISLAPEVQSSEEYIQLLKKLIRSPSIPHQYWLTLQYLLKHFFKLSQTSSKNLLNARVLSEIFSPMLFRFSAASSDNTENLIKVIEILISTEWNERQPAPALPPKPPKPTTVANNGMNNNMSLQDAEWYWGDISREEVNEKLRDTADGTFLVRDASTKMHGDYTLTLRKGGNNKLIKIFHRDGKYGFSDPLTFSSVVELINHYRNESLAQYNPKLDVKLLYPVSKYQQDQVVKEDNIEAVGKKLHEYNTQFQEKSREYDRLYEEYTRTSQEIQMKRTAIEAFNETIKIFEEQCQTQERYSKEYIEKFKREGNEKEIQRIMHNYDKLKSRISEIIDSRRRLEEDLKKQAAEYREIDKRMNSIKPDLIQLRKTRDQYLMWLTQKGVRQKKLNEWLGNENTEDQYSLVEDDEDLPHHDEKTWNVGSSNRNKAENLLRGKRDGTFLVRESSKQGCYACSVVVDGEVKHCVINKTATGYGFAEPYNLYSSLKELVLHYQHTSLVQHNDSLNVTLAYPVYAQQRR

Consider `CC(Nc1ncnc2[nH]cnc12)c1nc2ccccc2nc1-c1ccccc1` (stereo not drawn) [Compound Q1], for which, on PI3Kα (p110α/p85α), the inhibition at 1 µM was 18%, the inhibition at 10 µM turned out to be 89% and the IC50 is 6.92 µM. In addition, the EC50 on PI3Kα is > 20 µM.

Turning to `CC(Nc1ncnc2[nH]cnc12)c1nc2ccccc2nc1-c1cc(F)cc(F)c1` (stereo not drawn) [Compound Q2, N-{1-[3-(3,5-difluorophenyl)quinoxalin-2-yl]ethyl}-9H-purin-6-amine], on PI3Kα (p110α/p85α), the inhibition at 10 µM was determined as 47% and the IC50 is > 10 µM. Further, the EC50 on PI3Kα is > 20 µM.

`Cc1cccc(-c2nc3ccccc3nc2C(C)Nc2ncnc3[nH]cnc23)c1` (stereo not drawn) [Compound Q3]: on PI3Kα (p110α/p85α), the inhibition at 10 µM stood at 65% and the IC50 is > 10 µM. Further, the EC50 at PI3Kα is > 20 µM.

With `Cc1cccc2nc(C(C)Nc3nc(N)nc4[nH]cnc34)c(-c3ccccc3)nc12` (stereo not drawn) [Compound Q4], on PI3Kα (p110α/p85α), the inhibition at 1 µM was determined as 18%, the inhibition at 10 µM worked out at 92% and the IC50 turned out to be 2.59 µM. On PI3Kα, this compound gave an EC50 of 17.7 µM.

Turning to `Cc1cccc2nc(C(C)Nc3nc(N)nc4[nH]cnc34)c(-c3ccc(F)cc3)nc12` (stereo not drawn) [Compound Q5], at PI3Kα (p110α/p85α), the inhibition at 1 µM came out at 41%, the inhibition at 10 µM was determined as 97% and the IC50 stood at 0.404 µM. The same compound showed an EC50 at PI3Kα of 14.3 µM.

Take `CCC(Nc1ncnc2[nH]cnc12)c1nc2cccc(F)c2nc1-c1ccccc1` (stereo not drawn) [Compound Q9]: at PI3Kα (p110α/p85α), the inhibition at 10 µM came to 72% and the IC50 is > 10 µM. The EC50 on PI3Kα was > 20 µM.

`CCC(Nc1ncnc2[nH]cnc12)c1nc2ccccc2nc1-c1ccccc1` (stereo not drawn) [Compound Q12]: at PI3Kα (p110α/p85α), the inhibition at 10 µM is 77% and the IC50 is > 10 µM. In addition, the EC50 on PI3Kα was > 20 µM.

Usually EC50 stands for the midpoint of the concentration-response curve. High values mean a less potent agent, low ones a more potent agent.
